According to PubChem BioAssay AID844 (SRMLSC, 2007):
The source made the active and inactive calls. How the calls were made is not given here.

Test system: MRP1 cells, doxorubicin viability shift, 10 uM compound
Test: doxorubicin EC50 increase in MRP-1 cells, dose response, cell-based, doxorubicin EC50 shift (AID 844)
Conditions: for EC50: measured here: doxorubicin EC50 with compound

SMILES	fold increase in Dox EC50	EC50 [µM]
COC(=O)c1ccc(OC)c(CSc2nnc(COc3ccc(Cl)cc3)o2)c1	1.44 (inactive)	7.77
O=C(CCc1ccccc1)N/N=C/c1cc(Br)ccc1O	0.12 (inactive)	0.631
O=C(NCCC1=CCCCC1)C1CCN(S(=O)(=O)c2cccc3cccnc23)CC1	0.43 (inactive)	2.31
Cc1ccc(C(c2sc3ncnn3c2O)N2CCC(C)CC2)cc1 (stereo not given)	0.72 (inactive)	3.87
O=C1Cc2ccccc2C(=O)N1CCc1ccccc1	0.44 (inactive)	2.37
CC1(C)CC(=O)C2=C(C1)N=C1SCCC(=O)N1C2c1ccc(C(F)(F)F)cc1 (stereo not given)	1.21 (inactive)	6.51
O=C1c2ccsc2SCCN1Cc1c(Cl)cccc1Cl	1.19 (inactive)	6.43
CCC1SC2=NC(C)=C(C(=O)OC)C(c3cccs3)N2C1=O (stereo not given)	1.1 (inactive)	5.94
Cc1c(C)n(C)c2ccc(C(=O)NCc3cccs3)cc12	1.06 (inactive)	5.75
CCOc1ccccc1CNC(=O)c1cc2oc3ccccc3c2n1CC	1.24 (inactive)	6.7
O=C(NC(=S)Nc1ccccn1)c1cc(-c2ccccc2)nc2ccccc12	0.91 (inactive)	4.93
C[C@]12C=CC(=O)C=C1CC[C@H]1[C@@H]3C[C@@H](O)[C@](O)(C(=O)CO)[C@@]3(C)C[C@H](O)[C@@]12F	1.41 (inactive)	7.62
C=CCc1c(C)nc(-c2ccccc2)nc1N/N=C/c1ccccc1	0.87 (inactive)	4.7
COc1cccc(C2CC(c3ccc(Cl)cc3Cl)n3nc(N)nc3N2)c1 (stereo not given)	1.03 (inactive)	5.56
Cc1cccc(CC2S/C(=N/c3ccccn3)NC2=O)c1 (stereo not given)	1.15 (inactive)	6.22
Cc1c(N2C(=O)/C(=C/c3ccccc3)SC2=S)c(=O)n(-c2ccccc2)n1C	0.58 (inactive)	3.15
O=C(O)CSC1c2ccccc2C(=O)N1Cc1ccccc1 (stereo not given)	0.82 (inactive)	4.42
COC(=O)CCc1c(C)[nH]c(C(=O)OCc2ccccc2)c1C	0.85 (inactive)	4.57
C/C(=N/NC(=S)Nc1ccccc1)c1ccc2c(c1)OCO2	1.01 (inactive)	5.46
Cc1ccc(S(=O)(=O)N2CCC(C(=O)N[C@@H](C)C(=O)Nc3ccc4c(c3)OCO4)CC2)cc1	1.43 (inactive)	7.7
CC1CC(C)CN(c2ncnc3c2cnn3-c2ccc(Cl)cc2)C1 (stereo not given)	0.35 (inactive)	1.89
CS(=O)(=O)Nc1nnc(Cc2ccccc2)s1	0.75 (inactive)	4.04
O=C(Nc1nnc(COc2ccc(Cl)cc2)s1)C1CCCO1 (stereo not given)	1.2 (inactive)	6.46
CCOC(=O)CN(C(=O)CSc1nnc(COc2ccc(OC)cc2)n1C)c1ccccc1	0.6 (inactive)	3.26
Cc1ccc(-c2nc(C3CCCN(S(=O)(=O)c4ccc(C)cc4)C3)no2)cc1 (stereo not given)	1.08 (inactive)	5.85
CCOP(=O)(OCC)C(NC(=O)Nc1ccc(Cl)cc1)C(=O)N(CC)CC (stereo not given)	1.33 (inactive)	7.16
COc1ccc(CSC2=NCCN2)cc1Cl	0.63 (inactive)	3.4
COc1cccc(/C=N/NC(=O)C(=O)N2CCCC2)c1O	0.67 (inactive)	3.6
Cc1cccc(NC(=O)CC2SC(=O)N(c3ccccc3)C2=O)c1 (stereo not given)	0.95 (inactive)	5.15
Cc1cccc(C)c1-n1c(C)cc(/C=C2\C(=O)NN(c3ccccc3)C2=O)c1C	0.63 (inactive)	3.39
